In PubChem BioAssay (NCI):
“And” between values parts separate entries of the source, which are not always exact repeats. Equal values may be shown once.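 Dose response: 5 concentrations. Exposure: 48 h. Format: 96-well plates. Endpoint: linear interpolation; highest concentration if not reached. Here, GI50 denotes the concentration required for 50% inhibition of growth. At the TGI there is no net growth.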

What was measured:
Test in all cases: inhibition of tumour cell growth, NCI panel, 48 h
SF-295 CNS = test system: SF-295 CNS
DMS 273 small cell lung = test system: DMS 273 small cell lung
SK-MEL-2 melanoma = test system: SK-MEL-2 melanoma
MALME-3M melanoma = test system: MALME-3M melanoma
SNB-75 CNS = test system: SNB-75 CNS
SF-268 CNS = test system: SF-268 CNS
SR leukemia = test system: SR leukemia
A498 renal = test system: A498 renal
HCC-2998 colon = test system: HCC-2998 colon
HOP-92 NSCLC = test system: HOP-92 NSCLC

Compound	TGI (SF-295 CNS) [µM]	TGI (DMS 273 small cell lung) [µM]	TGI (SK-MEL-2 melanoma)	TGI (MALME-3M melanoma) [µM]	TGI (SNB-75 CNS) [µM]	TGI (SF-268 CNS)	TGI (SR leukemia) [µM]	TGI (A498 renal) [µM]	TGI (HCC-2998 colon) [µM]	TGI (HOP-92 NSCLC)	GI50 (SK-MEL-2 melanoma)	GI50 (MALME-3M melanoma)	GI50 (A498 renal)
CC12CCC[C@@](C)(C(=O)OC3OC(CO)C(O)C(O)C3O)[C@H]1CCC13CC4CC(OC4(CO)[C@H]1O)[C@@H]23 (stereo not given in full)	> 100	> 100	> 100 µM	> 100	> 100	> 100 µM	> 100	> 100	> 100	> 100 µM			
CCCCCCCC/C=C\CCCCCCCC(=O)NCCN(CCN)C(=O)CCCCCCC/C=C\CCCCCCCC	> 100	> 100		> 100		> 100 µM	> 100	> 100	> 100	> 100 µM			
CC(C)=CC(=O)Cc1nc2cc(C)c(C)cc2[nH]c1=O	> 100	> 100	> 100 µM	> 100	> 100	> 100 µM	> 100	> 100	> 100	99.7 µM			
O=C(Nc1nc2ncn(CC(COc3ccccc3)OC(=O)c3ccccc3)c2c(=O)[nH]1)c1ccccc1 (stereo not given)	> 100	> 100	> 100 µM	> 100	> 100		> 100	> 100					
CC1=C(C(=O)Nc2ccc(Cl)c(Cl)c2)C(c2ccco2)C(C(=O)Nc2ccc(Cl)c(Cl)c2)=C(C)N1	20.5	32.7	26.3 µM	29.5	31.5	23.9 µM	32	26.6	23.9	31.2 µM			
CCN(CC)C(=O)COc1ccc(Br)cc1Br	> 100	> 100	> 100 µM	> 100	> 100	> 100 µM	> 100	> 100	> 100	> 100 µM			
CC1OC(OCC2COC(O)(Oc3c(-c4ccc(O)c(O)c4)oc4cc(O)cc(O)c4c3=O)C(O)C2O)C(O)C(O)C1O (stereo not given)	> 100	> 100		> 100	> 100	> 100 µM	> 100	> 100	> 100	> 100 µM			
CC1=C(C(=O)NCc2ccccc2)C(c2ccccc2[N+](=O)[O-])C(C(=O)NCc2ccccc2)=C(C)N1	25.4	25.4		27	26.6	22.9 µM	35.8	32.4	31.2	36.6 µM			
Nc1nc2nc[nH]c2c(=O)[nH]1	> 100	> 100	> 100 µM	> 100	> 100	> 100 µM	> 100	> 100		> 100 µM			
COc1ccc([C@H]2CC(=O)NCCCCN2)cc1	> 100	> 100	> 100 µM	> 100	> 100	> 100 µM	> 100	> 100		> 100 µM			
NC1=N/C(=C2/CCNC(=O)c3[nH]c(Br)cc32)C(=O)N1	> 100	> 100	8.72 µM and 26.3 µM	> 100	> 91.5	59.9 µM and > 69.6 µM	2.25	> 100	> 100	63.8 µM and 81.5 µM	0.975 µM and 2.9 µM	8.82 µM and 25.1 µM	45.9 µM and > 100 µM
Nc1ccn(C2CC(CO)C(O)C2O)c(=O)n1 (stereo not given)		> 57.7	> 57.7 µM	> 57.7	> 57.7	> 57.7 µM	> 57.7	> 57.7	> 57.7				
CC(C)OP(=O)(OC(C)C)C(=Nc1ccccc1)NNc1ccc([N+](=O)[O-])cc1		59	> 100 µM	50	> 100	> 100 µM	43.4		> 100	40.2 µM			
COP1(=O)Oc2ccccc2C(=O)C(C(F)(F)F)(C(F)(F)F)O1 (stereo not given)	> 100	> 100	> 100 µM		> 100	> 100 µM	> 100	> 100	> 100	> 100 µM			
O=c1cnn2c(n1)sc1ccc3ccccc3c12	> 100	> 100	> 100 µM	> 100	> 100	> 100 µM	> 100		> 100	> 100 µM			
O=c1c2ccccc2c2nc3ccccc3nc2n1C1CCCCC1	> 100	> 100	> 100 µM	> 100	> 100	> 100 µM	> 100		> 100				
Cc1cc(Cl)cc2c1NC(=O)C2(O)C(C)C(=O)c1ccc(Cl)cc1 (stereo not given)	> 100	> 100	> 100 µM	> 100	> 100	> 100 µM	> 91.2	> 91.6	> 100	> 100 µM			
CCOC(=O)c1cn(Cc2ccccc2)c(=O)n1Cc1ccccc1	> 100	> 100	> 100 µM	> 100	> 100	> 100 µM		> 100	> 100	> 100 µM			
